Earlier results as cited in patent US11779591B2, “Compositions containing decitabine, 5azacytidine and tetrahydrouridine and uses thereof” (Epidestiny, Inc., priority 2015, dated 2023).

Conditions: rapid deamination by CDA

For Nc1ccn([C@@H]2O[C@H](CO)[C@@H](O)[C@@H]2[18F])c(=O)n1 [FAC, 1-(2′-deoxy-2′-[18F]-fluoro-β-D-arabinofuranosyl)cytosine], the “distribution into solid tissues such as the liver and kidneys” value is given as “did not adequately distribute into solid tissues”.
